Laboratory results as given in US10570155B2, “Imidazooxazole derivative having antitumor effect, and pharmaceutical composition including same” (KOREA INSTITUTE OF SCIENCE AND TECHNOLOGY, priority 2016, dated 2020).
Like-named read-outs stand apart in the source and are kept apart here.

Experiments:
SK-MEL-28 = test: NCI cancer cell line panel screening (SRB), melanoma cell line SK-MEL-28; format: cell-based, human; conditions: read-out: IC50 against melanoma cell line in vitro
Experimental: (§1) According to the standard protocol (http://dtp.nci.nih.gov/dtpstandard/dwindex/index.isp) of the US National Cancer Institute (NCI) (www.dtp.nci.nih.gov), screening of a cancer cell line panel was performed. […] For a general screening experiment, cells were inoculated in 96-well microtiter plates in 100 μl at a plating density ranging from 5000 cells/well to 40,000 cells/well depending on the doubling time of individual cell lines. After cell inoculation, the microtiter plates were incubated at 37° C., 5% CO2, 95% air, and 100% relative humidity for 24 hours prior to addition of test compounds. 24 hours later, two plates of each cell line were fixed in situ with trichloroacetic acid (TCA) to measure the cell population for each cell line at the time of test compound addition (Tz). Test compounds were solubilized in dimethyl sulfoxide at 400-fold the intended final maximum test concentration, and stored frozen prior to use. At the time of compound addition, an aliquot of frozen concentrate was thawed and diluted to twice the intended final maximum test concentration with a complete medium containing 50 μg/ml of gentamicin. Additional four concentration of 10-fold or ½ log serial dilutions were made to provide a total of five compound concentrations plus control. Aliquots of 100 μl of these different compound dilutions were added to appropriate microtiter wells already containing 100 μl of medium, resulting in the required final compound concentrations.
(§2) Following compound addition, the plates were incubated for additional 48 hours at 37° C., 5% CO2, 95% air, and 100% relative humidity. For adherent cells, the assay was terminated by the addition of cold TCA. Cells were fixed in situ by the gentle addition of 50 μl of cold 50% (w/v) TCA (final concentration, 10% TAC) and incubated at 4° C. for 60 minutes. The supernatant was discarded, and the plates were washed five times with tap water and air-dried. A sulforhodamine B (SRB) solution (100 μl) at 0.4% (w/v) in 1% acetic acid was added to each well, and plates were incubated at room temperature for 10 minutes. After staining, unbound dye was removed by washing five times with 1% acetic acid and the plates were air-dried. […] For suspension cells, the methodology was the same except that the assay was terminated by fixing settled cells at the bottom of the wells by gently adding 50 μl of 80% TCA (final concentration, 16% TCA). Using the seven absorbance measurements [time zero (Tz), control growth (C), and test growth rate in the presence of compound at the five concentration levels (Ti)], the growth percentage was calculated at each of the compound concentration levels. Growth inhibition percentage was calculated as follows: [(Ti−Tz)/(C−Tz)]×100 for concentrations for which Ti>/=Tz [(Ti−Tz)/Tz]×100 for concentrations for which Ti<Tz.

SK-MEL-2 = test: NCI cancer cell line panel screening (SRB), melanoma cell line SK-MEL-2; format: cell-based, human; conditions: read-out: IC50 against melanoma cell line in vitro
Experimental: as §1, §2

SK-MEL-5 = test: NCI cancer cell line panel screening (SRB), melanoma cell line SK-MEL-5; format: cell-based, human; conditions: read-out: IC50 against melanoma cell line in vitro
Experimental: as §1, §2

UACC-62 = test: NCI cancer cell line panel screening (SRB), melanoma cell line UACC-62; format: cell-based; conditions: Homo sapiens, read-out: IC50 against melanoma cell line in vitro
Experimental: (§3) According to the standard protocol (http://dtp.nci.nih.gov/dtpstandard/dwindex/index.isp) of the US National Cancer Institute (NCI) (www.dtp.nci.nih.gov), screening of a cancer cell line panel was performed. Briefly, human cell lines were allowed to grow in an RPMI 1640 medium containing 5% FBS and 2 mM L-glutamine. For a general screening experiment, cells were inoculated in 96-well microtiter plates in 100 μl at a plating density ranging from 5000 cells/well to 40,000 cells/well depending on the doubling time of individual cell lines. After cell inoculation, the microtiter plates were incubated at 37° C., 5% CO2, 95% air, and 100% relative humidity for 24 hours prior to addition of test compounds. 24 hours later, two plates of each cell line were fixed in situ with trichloroacetic acid (TCA) to measure the cell population for each cell line at the time of test compound addition (Tz). Test compounds were solubilized in dimethyl sulfoxide at 400-fold the intended final maximum test concentration, and stored frozen prior to use. At the time of compound addition, an aliquot of frozen concentrate was thawed and diluted to twice the intended final maximum test concentration with a complete medium containing 50 μg/ml of gentamicin. Additional four concentration of 10-fold or ½ log serial dilutions were made to provide a total of five compound concentrations plus control. Aliquots of 100 μl of these different compound dilutions were added to appropriate microtiter wells already containing 100 μl of medium, resulting in the required final compound concentrations.
(§4) Following compound addition, the plates were incubated for additional 48 hours at 37° C., 5% CO2, 95% air, and 100% relative humidity. For adherent cells, the assay was terminated by the addition of cold TCA. Cells were fixed in situ by the gentle addition of 50 μl of cold 50% (w/v) TCA (final concentration, 10% TAC) and incubated at 4° C. for 60 minutes. The supernatant was discarded, and the plates were washed five times with tap water and air-dried. A sulforhodamine B (SRB) solution (100 μl) at 0.4% (w/v) in 1% acetic acid was added to each well, and plates were incubated at room temperature for 10 minutes. After staining, unbound dye was removed by washing five times with 1% acetic acid and the plates were air-dried. Bound stain was subsequently solubilized with 10 mM Trizma base, and the absorbance was read on an automated plate reader at a wavelength of 515 nm. For suspension cells, the methodology was the same except that the assay was terminated by fixing settled cells at the bottom of the wells by gently adding 50 μl of 80% TCA (final concentration, 16% TCA). Using the seven absorbance measurements [time zero (Tz), control growth (C), and test growth rate in the presence of compound at the five concentration levels (Ti)], the growth percentage was calculated at each of the compound concentration levels. Growth inhibition percentage was calculated as follows: [(Ti−Tz)/(C−Tz)]×100 for concentrations for which Ti>/=Tz [(Ti−Tz)/Tz]×100 for concentrations for which Ti<Tz.

LOX IMVI = test: NCI cancer cell line panel screening (SRB), melanoma cell line LOX IMVI; format: cell-based, human; conditions: read-out: IC50 against melanoma cell line in vitro
Experimental: as §1, §2

B-RAF = B-RAF (Homo sapiens (Human), UniProt P15056); test: Protein kinase enzymatic activity (Reaction Biology kinase hotspot, 33P-ATP); format: biochemical; conditions: read-out: Inhibitory effect against kinase activity, B-RAF (IC50)
Chain of B-RAF (P15056 whole entry): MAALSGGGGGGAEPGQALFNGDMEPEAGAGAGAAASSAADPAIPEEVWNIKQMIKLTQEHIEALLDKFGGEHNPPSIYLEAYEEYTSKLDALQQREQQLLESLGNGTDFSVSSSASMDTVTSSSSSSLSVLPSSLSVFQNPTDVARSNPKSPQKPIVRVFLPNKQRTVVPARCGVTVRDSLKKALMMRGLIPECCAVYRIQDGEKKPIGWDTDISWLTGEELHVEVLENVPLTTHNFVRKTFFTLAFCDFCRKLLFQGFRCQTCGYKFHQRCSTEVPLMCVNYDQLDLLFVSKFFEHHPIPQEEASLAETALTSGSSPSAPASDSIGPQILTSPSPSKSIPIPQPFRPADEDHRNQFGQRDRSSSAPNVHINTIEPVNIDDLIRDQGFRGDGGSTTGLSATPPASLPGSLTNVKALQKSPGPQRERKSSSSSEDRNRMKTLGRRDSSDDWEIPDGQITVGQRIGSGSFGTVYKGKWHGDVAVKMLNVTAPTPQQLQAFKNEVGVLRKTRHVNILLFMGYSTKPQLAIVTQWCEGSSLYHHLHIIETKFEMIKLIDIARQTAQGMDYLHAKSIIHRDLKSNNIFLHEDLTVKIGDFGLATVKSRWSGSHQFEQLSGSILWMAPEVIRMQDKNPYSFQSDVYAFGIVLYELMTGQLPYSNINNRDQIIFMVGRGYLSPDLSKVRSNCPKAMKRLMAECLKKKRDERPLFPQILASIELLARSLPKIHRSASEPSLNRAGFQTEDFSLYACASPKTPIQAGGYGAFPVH
Experimental: (§5) Reaction biology kinase hotspot service (http://www.reactionbiology.com) was used to measure IC50. In a final reaction volume of 25 μL, kinase (5 mU to 10 mU) was incubated with 25 mM Tris (pH 7.5), 0.02 mM EGTA, 0.66 mg/ml of myelin basic protein, 10 mM magnesium acetate, and [^33P-ATP] (specific activity of about 500 CPM/pmol, concentration as required). The reaction was initiated by addition of Mg-ATP mix. After incubation for 40 min at room temperature, the reaction was stopped by addition of 5 μl of a 3% phosphoric acid solution. 10 μL of the reaction was then spotted onto a P30 filtermat and washed three times for 5 minutes in 75 mM phosphoric acid and once in methanol prior to drying and scintillation counting.

V600E-B-RAF = V600E-B-RAF (Homo sapiens (Human), UniProt P15056, V600E); test: as above; format: biochemical; conditions: read-out: Inhibitory effect against kinase activity, V600E-B-RAF (IC50)
Chain of V600E-B-RAF (P15056 whole entry V600E): as the sequence (P15056 whole entry) above, with V600E counted along it
Experimental: as §5

A375P cell line = test: Inhibitory activity against proliferation of A375P melanoma cell line (MTT assay); format: cell-based; conditions: Homo sapiens
Experimental: To examine whether the compounds (2II, 9II, 10II, and 12II to 15II) of the present disclosure have remarkable effects, as compared with imidazothiazole-based compounds previously disclosed by the present inventors (M. S. Abdel-Maksoud et al./European Journal of Medicinal Chemistry 95 (2015) 453-463), inhibitory activities thereof against proliferation of A375P cell line which is a melanoma cell line were compared by the following experiments.
A375P cell line purchased from ATCC was cultured in a DMEM medium [containing 10% FBS and 1% penicillin/streptomycin] under 5% CO2 at 37° C. The cultured A375P cell line was collected using 0.05% trypsin-0.02% EDTA, and inoculated at a cell density of 5×10^3 cells per well in a 96-well plate. To measure cell viability, MTT [3-(4,5-dimethylthiazol-2-yl)-2,5-diphenyltetrazolium bromide] assay (CellTiter 96 Assay, Promega) was performed as follows. MTT assay was performed in accordance with the guidelines of CellTiter 96® (Promega).

M14 = test: NCI cancer cell line panel screening (SRB), melanoma cell line M14; format: cell-based; conditions: Homo sapiens, read-out: IC50 against melanoma cell line in vitro
Experimental: as §3, §4

MDA-MB-435 = test: NCI cancer cell line panel screening (SRB), melanoma cell line MDA-MB-435; format: cell-based; conditions: Homo sapiens, read-out: IC50 against melanoma cell line in vitro
Experimental: as §3, §4

A375 = test: NCI cancer cell line panel screening (SRB), melanoma cell line A375; format: cell-based; conditions: Homo sapiens, A-375, read-out: IC50 against melanoma cell line in vitro
Experimental: as §3, §4

IC50 (A375P cell line) [nM]	Structure (SMILES)	IC50 (UACC-62) [nM]	IC50 (SK-MEL-28; Homo sapiens) [nM]	IC50 (SK-MEL-2; Homo sapiens) [nM]	IC50 (SK-MEL-5; Homo sapiens) [nM]	IC50 (M14) [nM]	IC50 (MDA-MB-435) [nM]	IC50 (A375) [nM]	IC50 (LOX IMVI; Homo sapiens) [nM]	other results
–	COc1cccc(-c2nc3sccn3c2-c2ccnc(NCCNS(=O)(=O)c3ccc(C(F)(F)F)cc3)n2)c1 [8III, N-(2-((4-(6-(3-methoxyphenyl)imidazo[2,1-b]thiazol-5-yl)pyrimidin-2-yl)amino)ethyl)-4-(trifluoromethyl)benzenesulfonamide]	480	–	–	–	–	–	–	–	IC50 (SK-MEL-28): 3680 nM; IC50 (SK-MEL-2): 3040 nM; IC50 (SK-MEL-5): 1240 nM; IC50 (LOX IMVI): 3260 nM; IC50 (B-RAF): 687 nM; IC50 (V600E-B-RAF): 98 nM
60	CN1CCN(CCNc2nccc(-c3c(-c4cccc(O)c4)nc4sccn34)n2)S1(=O)=O	–	–	–	–	–	–	–	–	–
720	O=S1(=O)NCCCN1CCNc1nccc(-c2c(-c3cccc(O)c3)nc3sccn23)n1	–	–	–	–	–	–	–	–	–
–	CC1(C)CN(CCNc2nccc(-c3c(-c4cccc(O)c4)nc4occn34)n2)S(=O)(=O)N1 [5II, 2-(2-((4-(6-(3-Hydroxylphenyl)imidazo[2,1-b]oxazol-5-yl)pyrimidin-2-yl)amino)ethyl)-4,4-dimethyl-1,2,5-thiadiazolidine 1,1-dioxide]	90	220	1600	340	320	740	870	2300	–
870	CC1(C)CN(CCNc2nccc(-c3c(-c4cccc(O)c4)nc4sccn34)n2)S(=O)(=O)N1	–	–	–	–	–	–	–	–	–
–	O=S1(=O)NCCCN1CCNc1nccc(-c2c(-c3cccc(O)c3)nc3occn23)n1 [8II, 2-(2-((4-(6-(3-Hydroxylphenyl)imidazo[2,1-b]oxazol-5-yl)pyrimidin-2-yl)amino)ethyl)-1,2,6-thiadiazinane 1,1-dioxide]	59	170	380	170	300	380	58	2150	–
> 10000	CC(C)(C)OC(=O)N1CCN(CCNc2nccc(-c3c(-c4ccc(F)cc4)nc4sccn34)n2)S1(=O)=O [reference compound]	–	–	–	–	–	–	–	–	–
–	CN1CCCN(CCNc2nccc(-c3c(-c4cccc(O)c4)nc4occn34)n2)S1(=O)=O [6II, 2-(2-((4-(6-(3-Hydroxylphenyl)imidazo[2,1-b]oxazol-5-yl)pyrimidin-2-yl)amino)ethyl)-6-methyl-1,2,6-thiadiazinane 1,1-dioxide]	58	240	2280	240	160	490	470	4360	–

Structure (SMILES)	IC50 (A375P cell line) [nM]	IC50 (UACC-62) [nM]	IC50 (SK-MEL-28; Homo sapiens) [nM]	IC50 (SK-MEL-2; Homo sapiens) [nM]	IC50 (SK-MEL-5; Homo sapiens) [nM]	IC50 (M14) [nM]	IC50 (MDA-MB-435) [nM]	IC50 (A375) [nM]	IC50 (LOX IMVI; Homo sapiens) [nM]	other results
CCN1CCN(CCNc2nccc(-c3c(-c4cccc(O)c4)nc4occn34)n2)S1(=O)=O [drawing 151]	190	–	–	–	–	–	–	–	–	–
